Reference: paper PMC12267423, “Comparisons of pharmacokinetics of glimepiride in combination with Ojeok-san versus glimepiride alone: an open-label, one-sequence, two-treatment controlled clinical study” (Scientific Reports, 2025)
Read-outs that look alike come from different tables or passages of the source.

How the values were obtained:
[1] = tested on: serum glucose concentration; test: Oral glucose tolerance test (pharmacodynamics) before and after glimepiride with or without OJS; settings: glucose 50 g (glimepiride alone), 75 g (with OJS)
Experimental: Oral glucose tolerance tests (OGTT) were performed before and after glimepiride administration on days 1 and 9, and days 2 and 10, respectively, to assess the PD effects (Supplementary information).
The PD parameters included the maximum serum glucose concentration (Gmax), 2-hour serum glucose level (PP2), and area under the glucose concentration-time curve for 4 h after glucose administration (AUG0–4 h), which was calculated using the linear trapezoidal rule. The change values of Gmax, PP2, and AUG0–4 h were calculated by subtracting the baseline serum glucose concentrations from the corresponding post-administration values at each time point, following glimepiride administration with or without OJS. The maximum of these difference values was defined as the change in Gmax, and the value at 2 h as the change in PP2. The area under the curve from 0 to 4 h was calculated using linear trapezoidal method and defined as change in AUG0 − 4 h. Additionally, the percent change (%change) was calculated as: 100×(change value / baseline value).
The initial protocol stipulated the administration of 75 g of glucose; however, due to a lapse in protocol adherence by the administering clinical research nurse, which involved an incorrect glucose dosage of 50 g stemming from a failure to accurately verify the medication label, a deviation occurred (a report of this protocol violation was filed with the Institutional Review Board). Consequently, the plasma glucose assessment post-glimepiride monotherapy was conducted using 50 g of glucose, whereas the evaluation of the combined effect of glimepiride and OJS during the second admission utilized 75 g of glucose, introducing variance in glucose exposure across the two evaluations.

[2] = tested on: glucose; design: method as in PMID 33262578; settings: 4 mg glimepiride, 75 g glucose load; cited from earlier work
[3] = cited from earlier work
[4] = Pharmacokinetics of glimepiride and M1 in plasma, glimepiride alone versus with Ojeok-san, clinical crossover study; settings: for Reduction of mean Cmax with OJS compared to glimepiride monotherapy: absorption phase; for CL/F / t1/2,0–24 h / AUC(0-t) / half-life / t1/2,0–48 h: mean ± SD; for Tmax: median (min–max); for Geometric mean ratio of AUC0–24 h (%, 90% CI) / Geometric mean ratio of AUC0–48 h (%, 90% CI) / Geometric mean ratio of AUCinf (%, 90% CI) / Geometric mean ratio of Cmax (%, 90% CI): glimepiride and OJS co-administration to glimepiride alone
Experimental: (§1) Glimepiride (4 mg) was orally administered once daily on days 1–2 during period 1. Subsequently, the 4.35 g/pack of OJS was orally administered three times a day on days 4–11 during period 2, and glimepiride (4 mg) was co-administered once a day on days 9–10 during period 2. Glimepiride (4 mg) was administered at approximately 12:00 PM on days 1 and 9 and at approximately 8:00 AM on days 2 and 10. The 4.35 g/pack of OJS was administered thrice a day at 7:00–10:00 AM, 12:00–03:00 PM, and 6:00–9:00 PM on days 4–11. However, during hospitalization, OJS was administered at approximately 7:00 AM on days 9–10, just 1 h before glimepiride administration.
(§2) For the PK analysis of glimepiride, blood samples were collected immediately before the glimepiride administration on days 1 and 9 on the first day of each period. On days 2 and 10, blood samples were collected immediately before glimepiride administration (0 h) and 0.25, 0.5, 1, 1.5, 2, 2.5, 3, 3.5, 4, 5, 6, 8, 12, 15, 24, and 48 h after glimepiride administration.
(§3) The analyte was separated using a YMC hydrosphere C18 (50 × 2.0 mm, 3 μm; YMC, USA) at 40 ℃. The mobile phase consists of 5 mM ammonium formate and 100% acetonitrile (20:80, v/v) with a flow rate of 180 µL/min. The compounds were detected in the positive mode using an electrospray ionization source. […] A linear response of glimepiride was shown in the range of 2 to 1000 ng/mL (r^2 ≥ 0.9970), and the lower limit of quantification was determined as 2 ng/mL.
(§4) PK parameters were calculated using the noncompartmental method in Phoenix WinNonlin 8.3 (Certara USA Inc., Princeton, NJ, USA). […] The terminal elimination rate constant (kz) was estimated from the regression of the log-linear decrease in the plasma concentration-time profile. The terminal elimination half-life (t1/2) was calculated as the natural logarithm of 2 divided by kz. The area under the plasma concentration-time curve (AUC) from dosing to 24 h post-dosing (AUC0–24 h) and AUC0–48 h from dosing to 48 h post-dosing were calculated using the linear/log trapezoidal rule. The AUC from 0 to infinity (AUCinf) was calculated as AUC0–24 h + C24 / kz, where kz is the terminal elimination rate constant estimated from linear regression of the terminal phase of the log-linear plot of the plasma concentration-time curve. The metabolic ratio was calculated by dividing the M1 AUC0–24 h by glimepiride AUC0–24 h.
(§5) All statistical analyses were performed using SAS 9.4 (SAS Institute Inc. Cary, NC, USA). Descriptive statistics were calculated for continuous variables.

[5] = tested on: healthy male subjects; test: Safety and tolerability (adverse events) in healthy male subjects; type: in vivo, human
Experimental: Safety and tolerability were assessed during the study period. The occurrence of AEs was monitored, and the investigators assessed its causal relationship with the study drugs. Vital signs, 12-lead electrocardiography (ECGs), physical examinations, and laboratory tests were performed and reviewed.

[6] = human, in vivo, 4 mg
Experimental: as §1, §2, §3, §4, §5

[7] = OGTT after glimepiride, mean ± SD
[8] = glimepiride administered with a meal
[9] = glimepiride 4 mg qd + OJS 4.35 g tid, N = 13
[10] = glimepiride 4 mg qd alone, N = 16
[11] = male, human, plasma, oral, 4 mg

**Q.** Which results are given for `CCC1=C(C)CN(C(=O)NCCc2ccc(S(=O)(=O)NC(=O)N[C@H]3CC[C@H](C)CC3)cc2)C1=O` [Glimepiride]?
**A.** PP2, Post- ([1]; 2-hour serum glucose after glimepiride, mean ± SD): 95.75 ± 29.96 mg/dL; AUG0–4 h % Change ([1]; 100×(change value / baseline value)): 16.15 ± 5.07%; AUG0–3h, Post- [1, 7]: 334.12 ± 44.24 mg·h/dL; Gmax, Post- [1, 7]: 173.88 ± 20.38 mg/dL; AUG0–3h % Change [1]: 15.54 ± 5.82%; Gmax % Change [1]: 25.48 ± 8.23%; PP2 % Change [1]: 16.88 ± 14.00%; AUG0–3h Change ([1]; post- versus pre-glimepiride): 61.07 ± 29.20 mg·h/dL; AUG0–4 h Change ([1]; post- versus pre-glimepiride): 77.01 ± 32.47 mg·h/dL; Gmax Change ([1]; post- versus pre-glimepiride): 45.63 ± 16.39 mg/dL; PP2 Change ([1]; post- versus pre-glimepiride): 17.94 ± 13.67 mg/dL; AUG0–3 h after glimepiride treatment [2]: 291.8 ± 48.5 mg·h/dL; Gmax after glimepiride treatment [2]: 134.4 ± 26.9 mg/dL; Reduction of Gmax [2]: 68.9 ± 25.1 mg/dL; Metabolites recovered in the urine [3]: approximately 60%; Reduction of mean AUC ([3]; co-administered with aspirin): 34%; Reduction of mean Cmax ([3]; co-administered with aspirin): 4%; Time to peak plasma concentrations ([3]; following oral administration): 2 to 3 h; Decrease of mean AUC [3, 8]: 9%; Decrease of mean Cmax [3, 8]: 8%; Reduction of AUC ([3]; with colesevelam): 18%; Reduction of Cmax ([3]; with colesevelam): 8%; Reduction of mean Cmax with OJS compared to glimepiride monotherapy [4]: approximately 16.86%; CL/F [4, 9]: 3.68 ± 1.54 L/h; Tmax ([4]; glimepiride 4 mg qd alone, day 2, plasma, N = 16): 4.5 (2.0–5.0) h; CL/F [4, 10]: 3.28 ± 1.16 L/h; t1/2,0–24 h [4, 10]: 8.53 ± 4.69 h; Geometric mean ratio of AUC0–24 h (%, 90% CI) [4]: 86.43 (77.56–96.31) %; Geometric mean ratio of AUC0–48 h (%, 90% CI) [4]: 86.98 (77.49–97.63) %; Geometric mean ratio of AUCinf (%, 90% CI) [4]: 89.15 (81.72–97.26) %; Geometric mean ratio of Cmax (%, 90% CI) [4]: 83.14 (69.96–98.81) %; Geometric mean ratio of AUC0–24 h (%, 90% CI) ([4]; listed as glimepiride): 86.43 (77.56, 96.31) %; Geometric mean ratio of Cmax (%, 90% CI) ([4]; listed as glimepiride): 83.14 (69.96, 98.81) %; AUC(0-inf) [4, 11]: 1380 ± 507 ng·h/mL; Cmax [4, 11]: 251 ± 87 ng/mL; AUC(0-t) ([4]; male, human, plasma, oral, 4 mg, AUC0–24 h, glimepiride 4 mg qd alone, N = 16): 1280 ± 483 ng·h/mL; AUC(0-t) ([4]; male, human, plasma, oral, 4 mg, AUC0–48 h, glimepiride 4 mg qd alone, N = 16): 1300 ± 519 ng·h/mL; Tmax ([4]; male, human, plasma, oral, 4 mg, Tmax, glimepiride 4 mg qd alone, day 2, plasma, N = 16): 4.3 h; half-life ([4]; male, human, plasma, oral, 4 mg, t1/2,0–24 h, glimepiride 4 mg qd alone, N = 16): 8.5 h; half-life ([4]; male, human, plasma, oral, 4 mg, t1/2,0–48 h, glimepiride 4 mg qd alone, N = 16): 8.73 ± 4.78 h; AUC(0-t) ([4]; male, human, plasma, oral, AUC0–24 h, glimepiride 4 mg qd + OJS 4.35 g tid, N = 13): 1130 ± 406 ng·h/mL; AUC(0-t) ([4]; male, human, plasma, oral, AUC0–48 h, glimepiride 4 mg qd + OJS 4.35 g tid, N = 13): 1160 ± 468 ng·h/mL; Tmax ([4]; male, human, plasma, oral, Tmax, glimepiride 4 mg qd + OJS 4.35 g tid, day 10, plasma, N = 13): 5 h; half-life ([4]; male, human, plasma, oral, t1/2,0–24 h, glimepiride 4 mg qd + OJS 4.35 g tid, N = 13): 10.2 ± 4.84 h; half-life ([4]; male, human, plasma, oral, t1/2,0–48 h, glimepiride 4 mg qd + OJS 4.35 g tid, N = 13): 9.33 ± 3.02 h; Metabolic ratio (M1 AUC0–24 h / glimepiride AUC0–24 h), co-administration versus glimepiride alone ([4]; p = 0.1209): not significantly different; Subjects reporting adverse events ([5]; period 1 (glimepiride alone), 6 out of 16 subjects): 37.5%; Subjects reporting adverse events ([5]; period 2 (OJS with glimepiride), 2 out of 13 subjects): 15.4%

**Q.** With `CCC1=C(C)CN(C(=O)NCCc2ccc(S(=O)(=O)NC(=O)NC3CCC(CO)CC3)cc2)C1=O` (stereo not drawn) [M1, hydroxy glimepiride] as the molecule, how does the “AUC0–24 h” value [6] read?
**A.** Its value is 237.85 ± 61.69 ng·h/mL.

**Q.** What about the “AUC0–48 h” value [6] of the same molecule?
**A.** Its value is 243.05 ± 70.10 ng·h/mL.

**Q.** What about the AUCinf [6] of the same molecule?
**A.** The AUCinf was 258.17 ± 67.99 ng·h/mL.

**Q.** What about the Cmax [6] of the same molecule?
**A.** Its Cmax is 32.61 ± 8.08 ng/mL.

**Q.** What about the Tmax [6] of the same molecule?
**A.** The Tmax was 5.0 (3.0–6.0) h.

**Q.** What about the “Reduction of mean Cmax with OJS compared to glimepiride monotherapy” value [4] of the same molecule?
**A.** Its value is ~14.67%.

**Q.** And the CL/F [4, 9]?
**A.** Its CL/F is 17.13 ± 4.89 L/h.

**Q.** And the “t1/2,0–24 h” value [4, 9]?
**A.** The value was 8.04 ± 2.95 h.

**Q.** And the “t1/2,0–48 h” value [4, 9]?
**A.** The value was 8.02 ± 2.80 h.

**Q.** What about the CL/F [4, 10] of the same molecule?
**A.** Its CL/F is 16.40 ± 4.00 L/h.

**Q.** And the “t1/2,0–24 h” value [4, 10]?
**A.** Its value is 6.73 ± 1.35 h.

**Q.** And the “t1/2,0–48 h” value [4, 10]?
**A.** Its value is 7.08 ± 1.97 h.

**Q.** And the “Geometric mean ratio of AUC0–24 h (%, 90% CI)” value [4]?
**A.** The value was 91.77 (85.53–98.46) %.

**Q.** What about the “Geometric mean ratio of AUC0–48 h (%, 90% CI)” value [4] of the same molecule?
**A.** Its value is 92.48 (85.29–100.26) %.

**Q.** And the “Geometric mean ratio of AUCinf (%, 90% CI)” value [4]?
**A.** Its value is 95.05 (89.10–101.40) %.

**Q.** And the “Geometric mean ratio of Cmax (%, 90% CI)” value [4]?
**A.** Its value is 85.33 (77.77–93.62) %.

**Q.** For `Cc1ccc(-c2cc(C(F)(F)F)nn2-c2ccc(S(N)(=O)=O)cc2)cc1` [celecoxib], which “Decrease of AUC” value ([3]; co-administration with OJS) is on record?
**A.** The value was 11.5%.

**Q.** What about the “Decrease of Cmax” value ([3]; co-administration with OJS) of the same molecule?
**A.** The value was 27.5%.
